These are literature values, as cited in publication PMC7403827 (Clinical and Translational Medicine, 2020).

The conditions of data set [1]: previously reported, cited from earlier work.
The subject of another data set is CYP3A4. On the set-up: method as in PMID 28967981. The conditions noted are these: cited from earlier work.
[2] abbreviates: Apatinib 250mg, ref [1] Yu M et al., Clinical Pharmacokinetics 2017.
Where [3] appears, read: Apatinib 500mg, ref [2] Ding J et al., J Chromatogr B 2012.

Read-outs that look alike come from different tables or passages of the source.

For the compound `N#CC1(c2ccc(NC(=O)c3cccnc3NCc3ccncc3)cc2)CCCC1` [Apatinib], in data set [1] (setting [2]), the AUC0-24 is 3538 (1996-6025) ng·h/ml and the Cmax is reported as 581 (321-1216) ng/ml. Moreover, in data set [1] (setting [3]), the AUC0-24 is 11295 (70) ng·h/ml, the Cmax was 1521 (75) ng/ml and the Tmax is 3.5 (3-8) h. The “inhibitory effect on CYP3A4” value in the data set on CYP3A4 was “strong inhibitory effect”.
